Data from ChEMBL document CHEMBL1131762, “Synthesis and identification of conformationally constrained selective MMP inhibitors” (Bioorg Med Chem Lett, 1999).

Key:
Interstitial collagenase = target: T1, Interstitial collagenase (Homo sapiens, UniProt P03956); experiment: Inhibition of human recombinant matrix metalloprotease-1 (hMMP-1)
T1 sequence (P03956 whole entry): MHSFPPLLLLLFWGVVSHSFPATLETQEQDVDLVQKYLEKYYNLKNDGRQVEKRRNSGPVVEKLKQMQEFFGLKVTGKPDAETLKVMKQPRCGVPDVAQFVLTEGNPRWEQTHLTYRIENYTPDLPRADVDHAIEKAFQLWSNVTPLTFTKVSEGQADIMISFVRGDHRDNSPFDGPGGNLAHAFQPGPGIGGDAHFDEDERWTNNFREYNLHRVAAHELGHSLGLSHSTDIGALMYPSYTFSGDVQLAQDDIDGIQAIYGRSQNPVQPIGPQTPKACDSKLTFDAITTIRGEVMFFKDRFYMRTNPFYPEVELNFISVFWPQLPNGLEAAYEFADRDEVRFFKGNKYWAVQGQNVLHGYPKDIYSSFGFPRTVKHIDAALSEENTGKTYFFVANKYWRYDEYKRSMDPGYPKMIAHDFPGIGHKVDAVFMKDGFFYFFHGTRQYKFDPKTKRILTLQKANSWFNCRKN

Neutrophil collagenase = Neutrophil collagenase (Homo sapiens, UniProt P22894); experiment: Inhibition of human recombinant matrix metalloprotease-8 (hMMP-8)
Sequence of Neutrophil collagenase (P22894 whole entry): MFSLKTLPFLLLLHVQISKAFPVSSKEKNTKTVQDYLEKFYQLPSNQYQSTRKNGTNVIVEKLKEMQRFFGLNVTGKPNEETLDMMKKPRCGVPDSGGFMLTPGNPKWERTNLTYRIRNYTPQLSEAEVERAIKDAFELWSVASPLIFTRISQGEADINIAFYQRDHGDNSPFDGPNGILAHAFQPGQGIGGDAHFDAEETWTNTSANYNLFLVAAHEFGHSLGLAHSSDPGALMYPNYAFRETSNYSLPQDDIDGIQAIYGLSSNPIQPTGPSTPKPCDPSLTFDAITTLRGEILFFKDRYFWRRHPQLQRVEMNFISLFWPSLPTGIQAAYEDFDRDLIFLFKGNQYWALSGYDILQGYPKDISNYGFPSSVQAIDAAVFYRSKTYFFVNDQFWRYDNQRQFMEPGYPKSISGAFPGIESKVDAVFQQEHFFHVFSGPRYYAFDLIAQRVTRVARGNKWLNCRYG

Collagenase 3 = Collagenase 3 (Homo sapiens, UniProt P45452); experiment: Inhibition of human recombinant matrix metalloprotease-13 (hMMP-13)

`COc1ccc(S(=O)(=O)C2CCCC(S)C2)cc1` (centres undefined) was tested, and the IC50 (Interstitial collagenase) was 1 µM and the IC50 (Neutrophil collagenase) was 0.585 µM.

For `O=S(=O)(c1ccc(Sc2ccccc2)cc1)C1CCCC(S)C1` (centres undefined), the IC50 (Interstitial collagenase) was greater than 10 µM and the IC50 (Neutrophil collagenase) was 0.05 µM.

`O=S(=O)(c1ccc(Oc2ccccc2)cc1)C1CCCC(S)C1` (centres undefined) showed an IC50 (Interstitial collagenase) of 1.7 µM, an IC50 (Neutrophil collagenase) of 0.008 µM and an IC50 (Collagenase 3) of 0.001 µM.

In the case of `COc1ccc(S(=O)(=O)C2CCC(S)C2)cc1` (centres undefined), the IC50 (Interstitial collagenase) is reported as greater than 10 µM.

`COc1ccc(S(=O)(=O)CCCS)cc1` gave an IC50 (Neutrophil collagenase) of 1.1 µM.
